Measured values published in ChEMBL document CHEMBL1154280, “Identification and characterization of a small molecule inhibitor of Fatty Acid binding proteins” (J Med Chem, 2009).
Activity calls are given as the source filed them. The calls are words filed in the database; no cut-off is given here.

Experiments:
[1] = target: T1, Fatty acid-binding protein, adipocyte (Homo sapiens, UniProt P15090); assay: Binding affinity to AFABP in […] C8PA cells assessed as blocked of protein interaction with hormone sensitive lipase at 1 uM after 2 to 4 hrs by FRET analysis; assay type: cell-based
Target sequence in this assay (P15090 2-132 limits assumed): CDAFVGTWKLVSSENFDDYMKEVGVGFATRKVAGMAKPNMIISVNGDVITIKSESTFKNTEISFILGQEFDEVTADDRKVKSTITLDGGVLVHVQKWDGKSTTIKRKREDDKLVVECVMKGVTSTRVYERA

[2] = target: T2, Peroxisome proliferator-activated receptor gamma (Homo sapiens) (UniProt P37231); assay: Activation of PPARgamma expressed in african green monkey CV1 cells at 0.5 to 25 uM after 24 hrs by luciferase reporter gene assay; assay type: cell-based; conditions: CV-1
T2 sequence (whole entry): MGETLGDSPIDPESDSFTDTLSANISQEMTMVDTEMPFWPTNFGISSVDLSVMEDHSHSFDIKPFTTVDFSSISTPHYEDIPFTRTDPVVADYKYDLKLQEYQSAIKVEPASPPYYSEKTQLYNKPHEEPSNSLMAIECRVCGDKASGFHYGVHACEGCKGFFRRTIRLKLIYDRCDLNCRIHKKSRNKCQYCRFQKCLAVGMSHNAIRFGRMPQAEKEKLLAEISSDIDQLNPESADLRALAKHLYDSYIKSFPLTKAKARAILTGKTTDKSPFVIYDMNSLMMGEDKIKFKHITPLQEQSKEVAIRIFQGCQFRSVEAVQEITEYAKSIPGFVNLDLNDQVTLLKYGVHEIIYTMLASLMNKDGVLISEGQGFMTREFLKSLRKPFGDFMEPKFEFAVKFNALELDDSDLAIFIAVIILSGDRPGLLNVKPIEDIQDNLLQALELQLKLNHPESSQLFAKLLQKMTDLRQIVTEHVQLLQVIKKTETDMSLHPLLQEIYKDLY

[3] = target: T1, Fatty acid-binding protein, adipocyte; assay: Binding affinity to AFABP in […] C8PA cells assessed as blocked of protein interaction with hormone sensitive lipase at 10 uM after 2 to 4 hrs by FRET analysis; assay type: cell-based
Target sequence in this assay (P15090 2-132 limits assumed): as the sequence (P15090 2-132 limits assumed) above

Macrophage [4] = assay: Antiinflammatory activity in C57BL/6J mouse macrophages assessed as inhibition of LPS-stimulated MCP1 release pretreated for 48 hrs before LPS challenge measured after 24 hrs by ELISA; assay type: functional, cell-based
[5] = target: Fatty acid-binding protein 5 (Homo sapiens, UniProt Q01469); assay: Displacement of […] 1-anilinonaphthalene 8-sulfonic acid from EFABP expressed in Escherichia coli BL21 (DE3) by fluorescence spectrophotometry
[6] = target: Fatty acid-binding protein, heart (Homo sapiens, UniProt P05413); assay: Displacement of […] 1-anilinonaphthalene 8-sulfonic acid from HFABP expressed in Escherichia coli BL21 (DE3) by fluorescence spectrophotometry
Macrophage [7] = assay: Antiinflammatory activity in C57BL/6J mouse macrophages assessed as inhibition of LPS-stimulated IL6 release pretreated for 48 hrs before LPS challenge measured after 24 hrs by ELISA; assay type: functional, cell-based
[8] = target: T3, Peroxisome proliferator-activated receptor gamma (Mus musculus) (UniProt P37238); assay: Binding affinity to PPARgamma in C57BL/6J mouse macrophages assessed as increase in CD36 mRNA level at 500 nM after 48 hrs by real-time PCR analysis
T3 sequence (whole entry): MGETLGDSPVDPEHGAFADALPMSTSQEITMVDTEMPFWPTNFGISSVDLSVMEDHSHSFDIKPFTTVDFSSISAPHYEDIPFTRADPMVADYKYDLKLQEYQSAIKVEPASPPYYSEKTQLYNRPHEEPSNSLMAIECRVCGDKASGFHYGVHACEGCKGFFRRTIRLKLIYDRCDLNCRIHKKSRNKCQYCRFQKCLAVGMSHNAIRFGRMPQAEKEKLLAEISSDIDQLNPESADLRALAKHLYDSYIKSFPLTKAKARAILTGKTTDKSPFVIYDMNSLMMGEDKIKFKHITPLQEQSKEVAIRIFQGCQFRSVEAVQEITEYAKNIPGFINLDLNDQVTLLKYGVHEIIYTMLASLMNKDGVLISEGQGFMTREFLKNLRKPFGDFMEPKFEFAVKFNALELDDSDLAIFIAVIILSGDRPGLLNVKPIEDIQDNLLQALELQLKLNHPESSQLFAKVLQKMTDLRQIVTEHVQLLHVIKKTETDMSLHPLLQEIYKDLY

[9] = target: T3, Peroxisome proliferator-activated receptor gamma (Mus musculus); assay: Binding affinity to PPARgamma in C57BL/6J mouse macrophages assessed as increase in Cpt1alpha mRNA level at 500 nM after 48 hrs by real-time PCR analysis
[10] = target: T4, Fatty acid-binding protein, liver (Homo sapiens, UniProt P07148); assay: Displacement of […] 1-anilinonaphthalene 8-sulfonic acid from LFABP expressed in Escherichia coli BL21 (DE3) by fluorescence spectrophotometry
T4 sequence (P07148 whole entry): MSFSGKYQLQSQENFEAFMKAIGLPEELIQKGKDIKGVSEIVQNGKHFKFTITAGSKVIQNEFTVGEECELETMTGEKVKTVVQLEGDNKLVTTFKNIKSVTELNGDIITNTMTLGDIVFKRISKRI

Macrophage [11] = assay: Antiinflammatory activity in C57BL/6J mouse macrophages assessed as inhibition of LPS-stimulated TNFalpha release pretreated for 48 hrs before LPS challenge measured after 24 hrs by ELISA; assay type: functional, cell-based
[12] = target: T5, Fatty acid-binding protein, intestinal (Homo sapiens, UniProt P12104); assay: Displacement of […] 1-anilinonaphthalene 8-sulfonic acid from IFABP expressed in Escherichia coli BL21 (DE3) by fluorescence spectrophotometry
T5 sequence (P12104 whole entry): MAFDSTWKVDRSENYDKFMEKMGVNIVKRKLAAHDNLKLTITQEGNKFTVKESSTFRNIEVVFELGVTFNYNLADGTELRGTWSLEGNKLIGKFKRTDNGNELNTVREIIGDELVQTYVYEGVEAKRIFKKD

[13] = target: T1, Fatty acid-binding protein, adipocyte; assay: Binding affinity to AFABP in forskolin-stimulated […] C8PA cells assessed as blocked of protein interaction with hormone sensitive lipase at 1 uM after 2 to 4 hrs by FRET analysis; assay type: cell-based
Target sequence in this assay (P15090 2-132 limits assumed): as the sequence (P15090 2-132 limits assumed) above

[14] = target: T1, Fatty acid-binding protein, adipocyte; assay: Binding affinity to AFABP in forskolin-stimulated […] C8PA cells assessed as blocked of protein interaction with hormone sensitive lipase at 10 uM after 2 to 4 hrs by FRET analysis; assay type: cell-based
Target sequence in this assay (P15090 2-132 limits assumed): as the sequence (P15090 2-132 limits assumed) above

[15] = target: T1, Fatty acid-binding protein, adipocyte; assay: Displacement of […] 1-anilinonaphthalene 8-sulfonic acid from AFABP expressed in Escherichia coli BL21 (DE3) by fluorescence spectrophotometry
Target sequence in this assay (P15090 whole entry): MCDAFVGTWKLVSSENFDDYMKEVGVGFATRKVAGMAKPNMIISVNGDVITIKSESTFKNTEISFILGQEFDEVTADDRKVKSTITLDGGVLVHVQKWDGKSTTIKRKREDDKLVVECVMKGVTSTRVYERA

[16] = target: T3, Peroxisome proliferator-activated receptor gamma (Mus musculus); assay: Binding affinity to PPARgamma in C57BL/6J mouse macrophages assessed as increase in Cpt1alpha mRNA level at 5 uM after 48 hrs by real-time PCR analysis
[17] = target: T3, Peroxisome proliferator-activated receptor gamma (Mus musculus); assay: Binding affinity to PPARgamma in C57BL/6J mouse macrophages assessed as increase in CD36 mRNA level at 5 uM after 48 hrs by real-time PCR analysis

Sequence of Fatty acid-binding protein, heart (P05413 whole entry): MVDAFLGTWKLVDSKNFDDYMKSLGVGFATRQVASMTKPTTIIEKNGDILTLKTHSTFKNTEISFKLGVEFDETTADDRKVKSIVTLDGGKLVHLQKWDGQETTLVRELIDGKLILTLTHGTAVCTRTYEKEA
Sequence of Fatty acid-binding protein 5 (Q01469 whole entry): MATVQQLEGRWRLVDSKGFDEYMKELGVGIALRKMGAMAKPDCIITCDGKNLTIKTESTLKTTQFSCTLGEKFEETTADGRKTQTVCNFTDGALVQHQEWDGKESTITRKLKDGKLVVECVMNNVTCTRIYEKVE

| Activity [1] | Activity [2] | Activity [3] | Ki [5] [µM] | Ki [6] [µM] | Activity [8] | Activity [9] | Ki [10] [µM] | Ki [12] [µM] | Activity [13] | Activity [14] | Ki [15] [µM] | Activity [16] | Activity [17] | Structure (SMILES) | Activity (Macrophage [4]) | Activity (Macrophage [7]) | Activity (Macrophage [11]) |
| --- | --- | --- | --- | --- | --- | --- | --- | --- | --- | --- | --- | --- | --- | --- | --- | --- | --- |
| Active | inactive | Active | 3.4 | 9.07 | inactive | inactive | 8.17 | 6.57 | inactive | Active | 0.67 | – | – | COC(=O)c1sc(-c2cccs2)cc1NC(=O)/C=C/C(=O)O | Active | Active | Active |
| – | – | – | – | – | – | – | – | – | – | – | – | Active | Active | CCCCC/C=C/C=C1/C(=O)C=C[C@@H]1C/C=C\CCCC(=O)O | – | – | – |
